Results taken from PubChem BioAssay (NCI).
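In this assay, cells in 96-well plates receive the compound at five concentrations for 48 hours. Endpoints are linearly interpolated between the surrounding concentrations. Definition used: TGI = concentration required for complete inhibition of growth.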

Experiments:
Test in all cases: NCI-60 cell line screen, 48 h
EKVX NSCLC = system: EKVX NSCLC
SK-MEL-5 melanoma = system: SK-MEL-5 melanoma
786-0 renal = system: 786-0 renal
T-47D breast = system: T-47D breast
SF-539 CNS = system: SF-539 CNS
MCF7 breast = system: MCF7 breast
KM12 colon = system: KM12 colon
NCI-H460 lung = system: NCI-H460 lung
NCI-H226 lung = system: NCI-H226 lung
HCT-116 colon = system: HCT-116 colon
SNB-75 CNS = system: SNB-75 CNS
OVCAR-4 ovarian = system: OVCAR-4 ovarian
HT29 colon = system: HT29 colon
OVCAR-8 ovarian = system: OVCAR-8 ovarian
NCI-H23 lung = system: NCI-H23 lung
SR leukemia = system: SR leukemia
K-562 leukemia = system: K-562 leukemia
DU-145 prostate = system: DU-145 prostate
IGROV1 ovarian = system: IGROV1 ovarian
NCI/ADR-RES ovarian = system: NCI/ADR-RES ovarian
U251 CNS = system: U251 CNS
BT-549 breast = system: BT-549 breast
OVCAR-3 ovarian = system: OVCAR-3 ovarian
HOP-92 NSCLC = system: HOP-92 NSCLC
SK-MEL-2 melanoma = system: SK-MEL-2 melanoma
HCC-2998 colon = system: HCC-2998 colon
UO-31 renal = system: UO-31 renal
HCT-15 colon = system: HCT-15 colon
CCRF-CEM leukemia = system: CCRF-CEM leukemia
OVCAR-5 ovarian = system: OVCAR-5 ovarian
RXF 393 renal = system: RXF 393 renal
TK-10 renal = system: TK-10 renal
ACHN renal = system: ACHN renal
MOLT-4 leukemia = system: MOLT-4 leukemia
PC-3 prostate = system: PC-3 prostate
A549 NSCLC = system: A549 NSCLC
SK-MEL-28 melanoma = system: SK-MEL-28 melanoma
COLO 205 colon = system: COLO 205 colon
HS 578T breast = system: HS 578T breast
SNB-19 CNS = system: SNB-19 CNS
MDA-MB-435 = system: MDA-MB-435
HOP-62 NSCLC = system: HOP-62 NSCLC
SN12C renal = system: SN12C renal
UACC-257 melanoma = system: UACC-257 melanoma
UACC-62 melanoma = system: UACC-62 melanoma
MDA-MB-231 breast = system: MDA-MB-231 breast
SF-295 CNS = system: SF-295 CNS
A498 renal = system: A498 renal
RPMI-8226 leukemia = system: RPMI-8226 leukemia
SK-OV-3 ovarian = system: SK-OV-3 ovarian
NCI-H522 lung = system: NCI-H522 lung
SF-268 CNS = system: SF-268 CNS
MDA-N = system: MDA-N
CAKI-1 renal = system: CAKI-1 renal
LOX IMVI melanoma = system: LOX IMVI melanoma
SW-620 colon = system: SW-620 colon
M14 melanoma = system: M14 melanoma
MALME-3M melanoma = system: MALME-3M melanoma
HL-60(TB) leukemia = system: HL-60(TB) leukemia

Which results are given for `COC1(OC)C2(Cl)CCC1(Cl)C(OC(C)=O)C2` (stereo not drawn)?
TGI (EKVX NSCLC): > 100 µM; TGI (SK-MEL-5 melanoma): > 100 µM; TGI (786-0 renal): > 100 µM; TGI (T-47D breast): > 100 µM; TGI (SF-539 CNS): > 100 µM; TGI (MCF7 breast): > 100 µM; TGI (KM12 colon): > 100 µM; TGI (NCI-H460 lung): > 100 µM; TGI (NCI-H226 lung): > 100 µM; TGI (HCT-116 colon): > 100 µM; TGI (SNB-75 CNS): > 100 µM; TGI (OVCAR-4 ovarian): > 100 µM; TGI (HT29 colon): > 100 µM; TGI (OVCAR-8 ovarian): > 100 µM; TGI (NCI-H23 lung): > 100 µM; TGI (SR leukemia): > 100 µM; TGI (K-562 leukemia): > 100 µM; TGI (DU-145 prostate): > 100 µM; TGI (IGROV1 ovarian): > 100 µM; TGI (NCI/ADR-RES ovarian): > 100 µM; TGI (U251 CNS): > 100 µM; TGI (BT-549 breast): > 100 µM; TGI (OVCAR-3 ovarian): > 100 µM; TGI (HOP-92 NSCLC): > 100 µM; TGI (SK-MEL-2 melanoma): > 100 µM; TGI (HCC-2998 colon): > 100 µM; TGI (UO-31 renal): > 100 µM; TGI (HCT-15 colon): > 100 µM; TGI (CCRF-CEM leukemia): > 100 µM; TGI (OVCAR-5 ovarian): > 100 µM; TGI (RXF 393 renal): > 100 µM; TGI (TK-10 renal): > 100 µM; TGI (ACHN renal): > 100 µM; TGI (MOLT-4 leukemia): > 100 µM; TGI (PC-3 prostate): > 100 µM; TGI (A549 NSCLC): > 100 µM; TGI (SK-MEL-28 melanoma): > 100 µM; TGI (COLO 205 colon): > 100 µM; TGI (HS 578T breast): > 100 µM; TGI (SNB-19 CNS): > 100 µM; TGI (MDA-MB-435): > 100 µM; TGI (HOP-62 NSCLC): > 100 µM; TGI (SN12C renal): > 100 µM; TGI (UACC-257 melanoma): > 100 µM; TGI (UACC-62 melanoma): > 100 µM; TGI (MDA-MB-231 breast): > 100 µM; TGI (SF-295 CNS): > 100 µM; TGI (A498 renal): > 100 µM; TGI (RPMI-8226 leukemia): > 100 µM; TGI (SK-OV-3 ovarian): > 100 µM; TGI (NCI-H522 lung): > 100 µM; TGI (SF-268 CNS): > 100 µM; TGI (MDA-N): > 100 µM; TGI (CAKI-1 renal): > 100 µM; TGI (LOX IMVI melanoma): > 100 µM; TGI (SW-620 colon): > 100 µM; TGI (M14 melanoma): > 100 µM; TGI (MALME-3M melanoma): > 100 µM

What does the source list for `O=P(O)(O)CN1CCN(CP(=O)(O)O)CCN(CP(=O)(O)O)CCN(CP(=O)(O)O)CC1`?
TGI (EKVX NSCLC): > 100 µM; TGI (786-0 renal): > 100 µM; TGI (T-47D breast): > 100 µM; TGI (SF-539 CNS): > 100 µM; TGI (MCF7 breast): > 100 µM; TGI (KM12 colon): > 100 µM; TGI (NCI-H460 lung): > 100 µM; TGI (NCI-H226 lung): > 100 µM; TGI (HCT-116 colon): > 100 µM; TGI (SNB-75 CNS): > 100 µM; TGI (OVCAR-4 ovarian): > 100 µM; TGI (HT29 colon): > 100 µM; TGI (OVCAR-8 ovarian): > 100 µM; TGI (NCI-H23 lung): > 100 µM; TGI (SR leukemia): 95.9 µM; TGI (K-562 leukemia): > 100 µM; TGI (DU-145 prostate): > 100 µM; TGI (IGROV1 ovarian): > 100 µM; TGI (NCI/ADR-RES ovarian): > 100 µM; TGI (U251 CNS): > 100 µM; TGI (HL-60(TB) leukemia): 72.4 µM; TGI (BT-549 breast): > 100 µM; TGI (OVCAR-3 ovarian): > 100 µM; TGI (HOP-92 NSCLC): > 100 µM; TGI (SK-MEL-2 melanoma): > 100 µM; TGI (HCC-2998 colon): > 100 µM; TGI (UO-31 renal): > 100 µM; TGI (HCT-15 colon): 77.7 µM; TGI (CCRF-CEM leukemia): > 100 µM; TGI (OVCAR-5 ovarian): > 100 µM; TGI (RXF 393 renal): > 100 µM; TGI (TK-10 renal): > 100 µM; TGI (ACHN renal): > 100 µM; TGI (MOLT-4 leukemia): > 100 µM; TGI (PC-3 prostate): > 100 µM; TGI (A549 NSCLC): > 100 µM; TGI (COLO 205 colon): > 100 µM; TGI (HS 578T breast): > 100 µM; TGI (SNB-19 CNS): > 100 µM; TGI (MDA-MB-435): > 100 µM; TGI (HOP-62 NSCLC): > 100 µM; TGI (SN12C renal): > 100 µM; TGI (UACC-257 melanoma): > 100 µM; TGI (UACC-62 melanoma): > 100 µM; TGI (MDA-MB-231 breast): > 100 µM; TGI (SF-295 CNS): > 100 µM; TGI (A498 renal): > 100 µM; TGI (RPMI-8226 leukemia): 93.5 µM; TGI (NCI-H522 lung): > 100 µM; TGI (SF-268 CNS): > 100 µM; TGI (MDA-N): > 100 µM; TGI (CAKI-1 renal): > 100 µM; TGI (LOX IMVI melanoma): > 100 µM; TGI (SW-620 colon): > 100 µM; TGI (M14 melanoma): > 100 µM
